{
  "source": "patent US11406699B2",
  "about": "(priority 2019, dated 2022)",
  "key": {"VEEV ZPC738 TaV-nLuc": {"test_system": "VEEV ZPC738 TaV-nLuc", "assay": "microbe, parasite or virus in culture", "type": "cell-based", "settings": "Venezuelan equine encephalitis virus, Vero, 24 h"}, "VEEV TC-83 [1]": {"test_system": "VEEV TC-83", "type": "cell-based, Venezuelan equine encephalitis virus"}, "SINV": {"test_system": "SINV", "type": "cell-based, Sindbis virus"}, "in vitro": {"assay": "in vitro", "settings": "African green monkey"}, "VEEV TC-83 [2]": {"test_system": "VEEV TC-83", "assay": "microbe, parasite or virus in culture", "type": "cell-based", "settings": "Venezuelan equine encephalitis virus, Vero, read-out: effective concentration 50% (EC50)"}, "CHIKV": {"test_system": "CHIKV", "type": "cell-based, chikungunya virus"}, "EEEV FL93-939 TaV-nLuc": {"test_system": "EEEV FL93-939 TaV-nLuc", "assay": "microbe, parasite or virus in culture", "type": "cell-based", "settings": "Eastern equine encephalitis virus, Vero, 24 h"}},
  "note": "Values joined by “and” are separate entries in the source; they are usually repeats but may differ in a detail not shown here. Equal values may be shown once.",
  "data": [
    {"compound": "CC(=O)c1c(O)c(C)c(O)c(Cc2c(O)c3c(c(C(=O)/C=C/c4ccccc4)c2O)OC(C)(C)C=C3)c1O", "note": "[Rottlerin]", "values": [
      {"measurement": "EC50", "setting": "VEEV ZPC738 TaV-nLuc", "value": 1.1, "unit": "µM"},
      {"measurement": "decrease in VEEV TC-83 replication", "setting": "VEEV TC-83 [1]", "value": "2 log and 3 log"},
      {"measurement": "decrease in SINV replication", "setting": "SINV", "value": 5, "unit": "log"},
      {"measurement": "CC50", "setting": "in vitro", "value": 63, "unit": "µM"},
      {"measurement": "EC50", "setting": "VEEV TC-83 [2]", "value": "< 1", "unit": "µM"},
      {"measurement": "decrease in CHIKV replication", "setting": "CHIKV", "value": 3, "unit": "log"},
      {"measurement": "EC50", "setting": "EEEV FL93-939 TaV-nLuc", "value": 1.7, "unit": "µM"}
    ]}
  ]
}
